In patent publication US6770649B2, “1-[1-(hetero)aryl-1-perhydroxyalkylmethyl]-piperazine compounds, process for their preparation and pharmaceutical compositions containing them” (Solvay Pharmaceuticals GmbH, priority 2001, dated 2004):
Read-outs that look alike come from different tables or passages of the source.

Key:
NK-2 receptors [1] = molecular target: T1, NK-2 receptors (Cavia porcellus, UniProt Q64077); experiment: NK-2-receptor-antagonistic effectiveness in vivo in anaesthetised guinea pigs (NKA test stimulus); design: species or system guinea pig; details: for NK-2-receptor-antagonistic activity of colon motility, late drop in blood pressure and respiratory resistance (in words): cumulative administration i.v., antagonism detected 1 min. after administration had ended
T1 construct: the NK-2 receptors present in the gall-bladder preparations; from tissue; host or cells: Pirbright-White guinea pig: isolated gall-bladder (A2); anaesthetised whole animal (A3)
T1 sequence (Q64077 1-402): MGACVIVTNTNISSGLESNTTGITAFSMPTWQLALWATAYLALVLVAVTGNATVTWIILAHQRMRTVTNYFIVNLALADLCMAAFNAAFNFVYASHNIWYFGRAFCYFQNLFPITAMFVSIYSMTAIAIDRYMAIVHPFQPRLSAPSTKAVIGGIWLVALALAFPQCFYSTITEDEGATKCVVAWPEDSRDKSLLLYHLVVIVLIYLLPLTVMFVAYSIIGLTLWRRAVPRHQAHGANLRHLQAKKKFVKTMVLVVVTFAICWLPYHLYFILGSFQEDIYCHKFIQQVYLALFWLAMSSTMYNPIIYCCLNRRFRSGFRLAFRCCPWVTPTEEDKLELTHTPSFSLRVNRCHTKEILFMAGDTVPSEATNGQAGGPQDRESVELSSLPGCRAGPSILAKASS
Text: 3. Determination of the NK-2-receptor-antagonistic Effectiveness of the Test Substances in vivo
The NK-2- and NK-1-antagonistic activities of the test substances were investigated in anaesthetised guinea pigs in each case after intravenous (=i.v.) and oral (=p.o.) administration in vivio. With the present test model it is possible to detect both NK-2-antagonistic effects in three different organ systems (respiratory tracts, colon and circulation) and NK-1-antagonistic effects (rapid drop in blood pressure) in an animal simultaneously.
Pirbright-White guinea pigs of a body weight of 500-700 g were anaesthetised with ketamine/xylazine (67/13 mg/kg subcutaneously, initial dose, further doses administered as required). The animals were provided with an intravenous catheter in order to administer the substance and an intra-arterial catheter to measure the blood pressure. The animals were artificially ventilated via a tracheal cannula and the respiratory pressure was recorded by means of a pressure transducer. A balloon was introduced into the distal colon of the animals for manometric recording of colon motility by means of a pressure transducer. Blood pressure, heart rate, respiratory pressure and colonic pressure were measured continuously for each animal and plotted on a recorder and by means of a digital data-processing system. Neurokinin A (=NKA; 200 pmol/animal) was administered i.v. as a bolus as a test stimulus to stimulate the NK-1- and the NK-2 receptors. An addition of NKA of this type results in a great increase in respiratory pressure (bronchoconstriction) and colonic pressure, and in a biphasic drop in blood pressure. The first phase of hypotension (=phase of maximum hypotension within the first minute after administration of NKA) is mediated via NK-1 receptors, since they can be blocked completely by specific NK-1 receptor antagonists. The second phase of delayed hypotension (=phase of maximum hypotension after 2-5 min.) on the other hand is mediated via NK-2 receptors, since they can be blocked by specific NK-2 receptor antagonists. The doses of the test substances are given as ED50 values which each result in a response to the NKA test stimulus which is reduced to 50% of the initial value, as characteristic variables for the individual measurement parameters bronchoconstriction, colonic pressure and change in blood pressure mediated by NK-1 or NK-2.
The antagonistic effects of the test substances were first investigated in cumulative form, the time of the NKA test stimulus being 1 min. after the administration of the respective doses of the test substances had ended. These ED50 values obtained from cumulative dose effect curves are plotted in Table 2 below. In order additionally to detect the variation over time of the antagonistic effects of the test substances, the action of the NKA test stimulus was determined at different times (1, 30, 60, 90, 120, 150 and 180 min.) after administration of the test substances.

NK-2 receptors [2] = molecular target: T1, NK-2 receptors; experiment: Functional NK-2 antagonism on isolated guinea pig gall-bladder preparations (NKA-induced contraction); format: cell-based; details: inhibition of contraction caused by NKA 0.1 μmol/l; two hours' incubation; Pirbright-White guinea pig gall-bladder
Description: 2. Determination of the Functional Antagonism of the Test Substances on Isolated Guinea Pig Tissue in vitro
The NK-2 receptor-antagonising action of the test substances was determined on isolated gall-bladder preparations from Pirbright-White guinea pigs, held in an oxygen-saturated nutrient solution. To this end, the preparations were fastened on one hand in the nutrient solution to organ holders and on the other hand on a force meter by a thread.
In this test the NK-2 receptors present in the gall-bladder preparations were stimulated with the natural NK-2 receptor agonist neurokinin A (=NKA; 0.1 μmol/l) and the contractions of the preparations caused thereby were measured as contractility in mN (=preliminary value) measured. Then NKA was rinsed out of the preparations with NKA-free solution and the test substances were added in a concentration of 10^−7 mol/l. After two hours' incubation of the preparations with the test substances, the contractions of the preparations then still caused by renewed NKA addition were again measured and the results were given as percentages, relative to the contractions initially measured, caused solely by NKA addition. The concentration of the test substances was increased iteratively in the subsequent experiments as a function of the result in logarithmic whole or half steps, until at least one concentration above or below 50% inhibition of contraction was determined (up to at most 10^−5 mol/l). For each concentration, the average value of inhibition of contraction was calculated from 2 to 4 preparations. In each case, the concentration of half-maximum inhibition (IC50) per test substance was calculated as characteristic variable. In each case the logarithmised value of the IC50 per test substance is given as pIC50 in [mol/l].

[3] = guinea pig, iv, cumulative dosing, NKA stimulus 1 min. after administration, NK-2-mediated late drop in blood pressure, read-out: ED50 Blood pressure, i.v. after 1 min. (cumulative)
[4] = guinea pig, iv, cumulative dosing, NKA stimulus 1 min. after administration, respiratory resistance (bronchoconstriction), read-out: ED50 Respiratory resistance, i.v. after 1 min. (cumulative)
[5] = guinea pig, iv, cumulative dosing, NKA stimulus (200 pmol/animal i.v.) 1 min. after administration, colonic pressure, read-out: ED50 Colonic pressure, i.v. after 1 min. (cumulative)
[6] = guinea pig, iv, from AUC of antagonistic effect over 120 min after administration, colonic pressure, read-out: ED50 Colonic pressure, i.v. AUC over 120 min
[7] = guinea pig, iv, from AUC over 120 min after administration, NK-2-mediated drop in blood pressure, read-out: ED50 Blood pressure, i.v. AUC over 120 min
[8] = guinea pig, iv, from AUC over 120 min after administration, respiratory resistance, read-out: ED50 Respiratory resistance, i.v. AUC over 120 min
[9] = guinea pig, po, from AUC over 180 min after administration, NK-2-mediated drop in blood pressure, read-out: ED50 Blood pressure, p.o. AUC over 180 min.
[10] = guinea pig, po, from AUC over 180 min after administration, colonic pressure, read-out: ED50 Colonic pressure, p.o. AUC over 180 min.
[11] = guinea pig, po, from AUC over 180 min after administration, respiratory resistance, read-out: ED50 Respiratory resistance, p.o. AUC over 180 min.

ED50 (NK-2 receptors [1]; [4]) | ED50 (NK-2 receptors [1]; [5]) | ED50 (NK-2 receptors [1]; [6]) | ED50 (NK-2 receptors [1]; [8]) | ED50 (NK-2 receptors [1]; [10]) | ED50 (NK-2 receptors [1]; [11]) | IC50 (NK-2 receptors [2]) | onset and duration of action (in words) (NK-2 receptors [1]; variation over time of the antagonistic effect, guinea pig) | SMILES | NK-2-receptor-antagonistic activity of colon motility, late drop in blood pressure and respiratory resistance (in words) (NK-2 receptors [1]) | ED50 (NK-2 receptors [1]; [3]) | ED50 (NK-2 receptors [1]; [7]) | ED50 (NK-2 receptors [1]; [9]) | inhibition of the NK-2 mechanisms at the colon compared with bronchoconstrictive or hypotensive NK-2 effects (in words) (NK-2 receptors [1]; comparison of the Table 2 values)
0.048 µmol/kg | 0.019 µmol/kg | 0.018 µmol/kg | 0.023 µmol/kg | 1.9 µmol/kg | 2 µmol/kg | 0.398 nM |  | CN(CC(CCN1CCN(C(c2ccco2)[C@H](O)[C@@H](O)[C@H](O)CO)CC1)c1ccc(Cl)c(Cl)c1)C(=O)c1ccccc1 (mixture of isomers) [Example 13] | marked NK-2-receptor-antagonistic activity | 0.08 µmol/kg | 0.025 µmol/kg | 24 µmol/kg | 
0.033 µmol/kg | 0.017 µmol/kg | 0.0009 µmol/kg | 0.008 µmol/kg | 0.5 µmol/kg | 1.8 µmol/kg | 0.158 nM | slow-onset action of long duration | CN(C[C@@H](CCN1CCN(C(c2ccsc2)[C@H](O)[C@@H](O)[C@H](O)CO)CC1)c1ccc(Cl)c(Cl)c1)C(=O)c1ccccc1 (stereo partly drawn) [Example 1, N-((2S)-2-(3,4-dichlorophenyl)-4-{4-[(2S,3R,4R)-2,3,4,5-tetrahydroxy-1-(3-thienyl)pentyl]-1-piperazinyl}butyl)-N-methylbenzamide] | marked NK-2-receptor-antagonistic activity | 0.025 µmol/kg | 0.006 µmol/kg | 2.7 µmol/kg | more effective inhibition of the NK-2 mechanisms at the colon (colon preference)
0.078 µmol/kg | 0.042 µmol/kg |  |  | 3.2 µmol/kg | 6.7 µmol/kg | 2 nM |  | CC(=O)OC[C@@H](OC(C)=O)[C@H](OC(C)=O)[C@@H](OC(C)=O)C(c1ccsc1)N1CCN(CC[C@H](CN(C)C(=O)c2ccccc2)c2ccc(Cl)c(Cl)c2)CC1 (some centres unmarked) [Example 14] | marked NK-2-receptor-antagonistic activity | 0.063 µmol/kg |  | 9.4 µmol/kg | 
